Results taken from ChEMBL document CHEMBL1201862, “PubChem BioAssay data set” (2004).
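Interpolation was linear, between the two tested concentrations surrounding the appropriate level; five concentrations were tested over 48 hours in 96-well plates. The concentration for 50% growth inhibition is given as GI50.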 Activity calls are given as the source filed them. Cut-off read from the data, not from the text of the source: active = GI50 up to about 1.1 µM and inactive = higher.

Key:
Experiment in all cases: growth of human tumour cells (NCI), 48 h
A549 = test system: A549
ACHN = test system: ACHN
BT-549 = test system: BT-549
HCT-15 = test system: HCT-15
HOP-62 = test system: HOP-62
HOP-92 = test system: HOP-92
Hs-578T = test system: Hs-578T
IGROV-1 = test system: IGROV-1
KM-20L2 = test system: KM-20L2
KM12 = test system: KM12
NCI-H522 = test system: NCI-H522
OVCAR-5 = test system: OVCAR-5
PC-3 = test system: PC-3
RXF 393 = test system: RXF 393
SF-268 = test system: SF-268
SK-MEL-28 = test system: SK-MEL-28
SK-MEL-2 = test system: SK-MEL-2
SK-MEL-5 = test system: SK-MEL-5
SNB-75 = test system: SNB-75
UO-31 = test system: UO-31

For `O=c1[nH]c2ccccc2nc1CBr`, the GI50 (A549) was 14.4 µM (inactive), the GI50 (ACHN) was 12.3 µM (inactive) and the GI50 (BT-549) was 9.27 µM (inactive). For the same compound, the GI50 (HCT-15) was 8.95 µM, the GI50 (HOP-62) was 21.3 µM (inactive) and the GI50 (HOP-92) was 3.39 µM (inactive). The GI50 (Hs-578T) was 12.1 µM (inactive), the GI50 (IGROV-1) was 4.22 µM (inactive) and the GI50 (KM-20L2) was 14.1 µM (inactive). For the same compound, the GI50 (KM12) was 2.56 µM (inactive), the GI50 (NCI-H522) was 0.638 µM (active) and the GI50 (OVCAR-5) was 17.7 µM (inactive). The GI50 (PC-3) was 12.6 µM (inactive), the GI50 (RXF 393) was 1.82 µM (inactive) and the GI50 (SF-268) was 11.1 µM (inactive). For the same compound, the GI50 (SK-MEL-28) was 12.1 µM (inactive), the GI50 (SK-MEL-2) was 8.24 µM (inactive) and the GI50 (SK-MEL-5) was 10.8 µM (inactive). The GI50 (SNB-75) was 12.8 µM (inactive) and the GI50 (UO-31) was 3.87 µM (inactive).
`O=C(NC(=O)c1ccccc1[N+](=O)[O-])Nc1ccc(Oc2ncc(Cl)cn2)c([N+](=O)[O-])c1` was tested, and the GI50 (A549) was 0.385 µM (active), the GI50 (ACHN) was 0.641 µM (active) and the GI50 (BT-549) was 31.5 µM (inactive). For the same compound, the GI50 (HCT-15) was 0.0855 µM, the GI50 (HOP-62) was 0.303 µM (active) and the GI50 (HOP-92) was 0.27 µM (active). For the same compound, the GI50 (Hs-578T) was 0.202 µM (active), the GI50 (IGROV-1) was 0.368 µM (active) and the GI50 (KM-20L2) was 0.121 µM (active). For the same compound, the GI50 (KM12) was 0.0975 µM (active), the GI50 (NCI-H522) was 0.115 µM (active) and the GI50 (OVCAR-5) was 0.875 µM (active). For the same compound, the GI50 (PC-3) was 0.196 µM (active), the GI50 (RXF 393) was 0.373 µM (active) and the GI50 (SF-268) was 0.327 µM (active). The GI50 (SK-MEL-2) was 0.127 µM (active), the GI50 (SK-MEL-5) was 0.0773 µM (active) and the GI50 (SNB-75) was 0.0767 µM (active). The GI50 (UO-31) was 0.573 µM (active).
